# Experiments:
# [1] = Physiological variables in post-treatment MCAO study; assay type: in vivo, Sprague-Dawley rats
# Experimental: Next, I examined whether treatment with Tat-NR2B9c could attenuate ischemic neuronal damage in-vivo when given after stroke onset. […] Infarction volume and neurological outcome measurements were performed at times identical to the pre-treatment study. Body temperature, blood pressure and blood gases were monitored throughout the 24 h experiment and maintained equivalent between groups (Table 2).
# [2] = tested on: CA1 neurons; assay: Electrophysiological recordings in acute hippocampal slices (CA1 neurons); parameters: species or system rat; conditions: 50 nM bath-applied
# Experimental: Electrophysiological Recordings were made in […] hippocampal slices from 20-36 day old Sprague-Dawley rats perfused at room temperature with ACSF containing (in mM) 126 NaCl, 3 KCl, 2 MgCl2, 2 CaCl2, 1.2 KH2PO4, 26 NaHCO3 and 10 glucose and bubbled with 95% O2/5% CO2. Whole-cell recordings of CA1 neurons were performed using the “blind” method with an Axopatch-1D amplifier (Axon Instruments, Foster City, Calif.) at holding potential −60 mV. Pipettes (4-5 MΩ) were filled with solution containing (mM): 135 CsCl, 2 MgCl2, 0.1 CaCl2, 0.5 EGTA, 10 HEPES, 4 Mg-ATP, 0.2 GTP, and 5 QX-314, pH 7.4, 310 mOsm. Field potentials were recorded with glass micropipettes (2-4 MΩ) filled with ACSF placed in the stratum radiatum […] from the cell body layer. Synaptic responses were evoked by stimulation (0.05 ms) of the Schaffer collateral-commissural pathway with a bipolar tungsten electrode in the presence of bicuculline methiodide (10 μM). For INMDA recording, Mg^2+ was removed from and 20 μM CNQX was added in ACSF. Following 10-20 min base line recordings of EPSCs, INMDA and fEPSPs, Tat-peptides were applied in ACSF and recordings were continued for 30 min thereafter.
# [3] = tested on: transient middle cerebral artery occlusion; assay: Transient MCAO, pre-treatment study; assay type: in vivo, Sprague-Dawley rats
# Experimental: Next, I examined whether pretreatment with Tat-peptides would reduce stroke damage. Experiments were carried out in adult male Sprague-Dawley rats subjected to transient middle cerebral artery occlusion (MCAO) for 90 minutes by the intraluminal suture method (36,37). Animals were fasted overnight and injected with atropine sulfate (0.5 mg/kg IP). After 10 minutes anesthesia was induced with 3.5% halothane in a mixture of nitrous oxide and oxygen (Vol. 2:1) and maintained with 0.8% halothane. Rats were orally intubated, mechanically ventilated, and paralyzed with pancuronium bromide (0.6 mg/kg IV). Body temperature was maintained at 36.5-37.5° C. with a heating lamp. Polyethylene catheters in the femoral artery and vein were used to continuously record blood pressure and to sample blood for gas and pH measurements. […] This produces an extensive infarction encompassing the cerebral cortex and basal ganglia. […] Physiological parameters (body temperature, blood pressure, blood gases) were monitored and maintained throughout the experiment (Table 1). All experimental manipulations and analyses of data were performed by individuals blinded to the treatment groups. The extent of cerebral infarction was measured 24 h after MCAO onset (FIG. 7C inset). The postural reflex test (38), and the forelimb placing test (39) were used to grade neurological function on a scale of 0 to 12 (normal=0; worst=12) during MCAO (at 50 minutes) and 24 h thereafter.
# [4] = tested on: nitrotyrosine; assay: Nitrotyrosine immunostaining (peroxynitrite formation); assay type: cell-based, mouse; conditions: pretreatment, 12 h post-NMDA challenge
# Experimental: Cultures were fixed with warm 4% paraformaldehyde and 4% sucrose in PBS for 20 min, permeabilized with 0.1% Triton X-100 for 10 min at 4° C., and blocked with 10% goat serum in PBS for 1 h at RT. Immunofluorescence was visualized with an inverted Nikon microscope using a 40× oil immersion lens. FITC, rhodamine and Hoechst were visualized using 465-495 excitation and 515-555 nm emission, 510-560 nm excitation and 590 nm emission, and 340 nm excitation and 510 nm emission, respectively. Active caspase 3 was labelled by incubating the cultures with a purified rabbit monoclonal anti-active caspase 3 antibody (1:300; BD PharMingen) and a fluorescein-conjugated goat anti-mouse IgG secondary antibody (1:500; Transduction Labs). Nitrotyrosine was labelled by incubating the cultures with a rabbit polyclonal α-nitrotyrosine primary antibody (1:300; Upstate) and a rhodamine-conjugated goat anti-rabbit IgG secondary antibody (1:500; Transduction Labs). AIF was labelled by incubating the cultures with an AIF antibody (1:200; Santa Cruz, (Zhang et al., 2002)) and a rhodamine-conjugated goat anti-mouse IgG secondary antibody (1:500; Transduction Labs). In some experiments, nuclei were counter-stained with Hoechst 33258 (1:5,000, Transduction Labs).
# [5] = tested on: reactive oxygen species; assay: ROS production (DHR fluorescence); assay type: cell-based, mouse
# Experimental: The production of reactive oxygen species (ROS) was measured with DHR. In brief, DHR is oxidized to a fluorescent rhodamine-123 (Royall and Ischiropoulos, 1993), and the consequent rise in fluorescence may be used as an indicator of ROS production.
# ROS were measured as previously described (Tymianski et al., 1998; Aarts et al., 2003). In brief, cultures were pre-loaded for 30 min with 5 μM DHR and subjected to the experimental insult. DHR fluorescence was measured in a multiwell plate fluorescence scanner (Cytofluor II, PerSeptive Biosytems, Framingham, Mass., USA; 485 nm excitation, 530 emission). DHR fluorescence was normalized to baseline using the formula at (Ft−Fo)/F0; Where Ft=DHR fluorescence at time t, Fo=DHR fluorescence at time zero. DHR fluorescence images were also acquired using a microscope (465-495 nm excitation and 515-555 nm emission) as described above for TMRM.
# [6] = Baseline behaviours after single i.v. injection; assay type: in vivo, Sprague-Dawley rats; conditions: over 4 hours, 0.5-50 nmols/g
# [7] = tested on: transient middle cerebral artery occlusion; assay: Transient MCAO, dose study of infarct size; assay type: in vivo, Sprague-Dawley rats
substance,measurement,setting,value
Tat-KLSSIESDV [Tat-NR2B9c],Body Temperature,[1]; After MCAo (15 min),36.8 ± 0.08 °C
same,MABP,[1]; After MCAo (15 min),119 ± 4 mmHg
same,Body Temperature,[1]; After MCAo (24 hr),36.4 ± 0.24 °C
same,Body weight,[1]; After MCAo (24 hr),279 ± 8 g
same,Blood gases PCO2,[1]; Before MCAo(15 min),40.1 ± 1.0 mmHg
same,Blood gases PH,[1]; Before MCAo(15 min),7.43 ± 0.02
same,Blood gases PO2,[1]; Before MCAo(15 min),105 ± 4 mmHg
same,Body Temperature,[1]; Before MCAo(15 min),36.6 ± 0.07 °C
same,MABP,[1]; Before MCAo(15 min),103 ± 5 mmHg
same,Body weight,[1]; Before anesthesia,306 ± 7 g
same,Blood gases PCO2,[1]; During MCAo (15 min),39.8 ± 0.9 mmHg
same,Blood gases PH,[1]; During MCAo (15 min),7.43 ± 0.01
same,Blood gases PO2,[1]; During MCAo (15 min),111 ± 4 mmHg
same,Body Temperature,[1]; During MCAo (15 min),37.0 ± 0.07 °C
same,MABP,[1]; During MCAo (15 min),119 ± 8 mmHg
same,Body Temperature,[1]; During MCAo (60 min),36.7 ± 0.11 °C
same,MABP,[1]; During MCAo (60 min),143 ± 5 mmHg
same,Body Temperature,[1]; During MCAo (65 min),36.9 ± 0.08 °C
same,MABP,[1]; During MCAo (65 min),137 ± 4 mmHg
same,"synaptic responses, total EPSC and AMPA or NMDA components of the EPSC in CA1 neurons",[2],had no effect
same,reduction in cortical infarction,"[3]; 3 nMoles/g i.v. 45 min prior to MCAO, 24 h after MCAO onset",70.7±11.23%
same,reduction of volume of total cerebral infarction,"[3]; 3 nMoles/g i.v. 45 min prior to MCAO, 24 h after MCAO onset, vs controls",54.6±11.27%
same,24 h neurological scores,[3]; 3 nMoles/g i.v. bolus 45 min prior to MCAO,trend toward improvement
same,nitrotyrosine immunoreactivity,[4],reduced nitrotyrosine immunoreactivity
same,ROS production by stretch alone,[5]; 50 nM pretreatment,has no effect
same,NMDA-evoked ROS production (DHR oxidation),"[5]; 50 nM pretreatment 30 min, stretched and unstretched cultures",reduced NMDA-evoked ROS production
same,"changes in sensory-motor, open field, or exploratory behaviour",[6],No significant changes
same,efficacy of the lowest dose versus higher doses,"[7]; 0.03 nmole/g, 3 h after stroke onset",equally effective
same,infarct size versus control dose,"[7]; 0.03, 0.3, 1 or 3 nmoles/g i.v. 3 h after stroke onset, measured 24 h after MCAO onset",significant reduction in infarct size
